Reference: patent US4452812A, “Organic complex of platinum, its preparation and its use for treating malignant tumors” (Sanofi, priority 1980, dated 1984)

Experiments:
leukemia L 1210 = assay: Anti-tumour activity, leukemia L 1210, i.p. graft, i.p. treatment
Description: […] females (CNRS, Orleans) of 20 to 22 g
(a) i.p. graft--i.p. treatment
10^5 cells were grafted intraperitoneally on D0 and intraperitoneal treatment was carried out 24 hours later, D1, in one single injection.
PHD and PHM were suspended in a 4% Klucel (hydroxy propyl cellulose) solution (the word "Klucel" is a registered trademark of Hercules Incorporated, Delaware, U.S.A.).
The solutions of these compounds were prepared extemporaneously. The increase in life span, ILS (%), were calculated in comparison with the controls by the following formula: [formula] Deaths were recorded until day 30 for L 1210 tumour and until day 60 for S180 tumour.

sarcoma S 180 = assay: Anti-tumour activity, sarcoma S 180 ascite, i.p. graft, i.p. treatment; assay type: in vivo, mouse (Swiss female); settings: for ILS: single i.p. on D1
Description: Swiss female mice (Evic-Ceba, Bordeaux) of 20 to 22 g
10^6 cells intraperitoneally grafted on D0
intraperitoneal treatment 24 hours later, D1, in one single injection.
(§1) The solutions of these compounds were prepared extemporaneously.

[1] = test system: renal and hepatic parenchyma; assay: Renal and hepatic toxicity; assay type: in vivo, mouse (Swiss female)
Description: It was thus of interest to compare the effects of the novel compound of the invention with those of the already known compounds listed above on the kidney and the liver, i.e. the organs in which the greatest amount of platinum accumulates.
Swiss female mice (Evic-Ceba, Bordeaux) of 20 to 22 g were treated by intraperitoneal route D0 and then sacrificed on D1, D4 and D10.
Slices 5 microns thick were coloured with hemalun eosine stain.

abdominal viscera = assay: Peritonitis (adhesion and hardening of abdominal viscera); assay type: in vivo, mouse
Description: as §1
As discussed above this problem seems to be linked to the presence of the 1,2-diaminocyclohexane ligand.

mouse = assay: Acute toxicity in the mouse; assay type: in vivo, mouse (Swiss female); settings: mouse, one single injection
Description: Acute toxicity, one single injection of the compound, was measured using Swiss female mice (Evic-Ceba, Bordeaux) of 21 to 23 g. and Sprague-Dawley rats. Ten animals were treated for each dose studied.

L 1210 cells = assay: Cytotoxicity on L 1210 cells in culture; assay type: cell-based; settings: read-out: ID50 (reduces by 50% the rate of growth of the cells); usually 24 to 48 hours contact
[2] = Stability in sodium chloride solution; assay type: physicochemical; settings: 9% sodium chloride
Description: This compound has an exceptionally high degree of solubility.
as §1

DNA = assay: Platinum fixed on DNA of L 1210 cells in vivo; parameters: species or system mouse (DBA/2); settings: PDD 9 mg/kg, PHIC 150 mg/kg; two hours after treatment on D3
Description: DBA/2 mice received 10^6 L 1210 cells on D0 and were treated three days later with an amount of platinum compound equal to the LD0 in the healthy mouse. Two hours after treatment on D3, the animals were sacrificed. […] Platinum was monitored by atomic absorption for whole cells and also on the DNA which was purified by phenol extraction. […] Under these conditions, one fixed platinum atom per 3000 nucleotides was found, i.e. a total of 1% of the amount which penetrated the cells was complexed to DNA. […] 10^-16 of platinum per cell.

[3] = S 180, 10 mg/kg i.p. on D1, day 60
[4] = S 180, 50 mg/kg i.p. on D1, day 60
[5] = S 180, 1 mg/kg i.p. on D1, day 60
[6] = S 180, 2 mg/kg i.p. on D1, day 60
[7] = S 180, 4 mg/kg i.p. on D1, day 60
[8] = S 180, 5 mg/kg i.p. on D1, day 60
[9] = L 1210, 4 mg/kg i.p. on D1, day 30

cis-citrato (1,2-diaminocyclohexane) platinum (II) [PHC]
ILS (leukemia L 1210; 120 mg/kg, single i.p. on D1, with 5 mice only): 90% | Survivals (leukemia L 1210; L 1210, 120 mg/kg i.p. on D1, day 30): 0% | ILS (sarcoma S 180; 10 mg/kg): 20% | ILS (sarcoma S 180; 25 mg/kg): 124% | ILS (sarcoma S 180; 50 mg/kg): 121% | Survivals (sarcoma S 180; [3]): 0% | Survivals (sarcoma S 180; S 180, 25 mg/kg i.p. on D1, day 60): 20% | Survivals (sarcoma S 180; [4]): 30% | renal and hepatic alterations ([1]; mouse, in vivo, ip): did not provoke any significant alterations | occurrence of peritonitis in relation to the 1,2-diaminocyclohexane ligand (abdominal viscera; mouse, in vivo, ip): seems to be correlated with the presence of 1,2-diaminocyclohexane

cis-isocitratodiammineplatinum(II) [PAIC]
ILS (leukemia L 1210; 75 mg/kg, single injection on D1): 74% | LD0 (maximum nonlethal dose) (mouse): 75 mg/kg | occurrence of peritonitis in relation to the 1,2-diaminocyclohexane ligand (abdominal viscera; mouse, in vivo, ip): never observed

cis-citratodiammineplatinum (II) [PAC]
ILS (leukemia L 1210; 100 mg/kg, single injection on D1): 17% | LD0 (maximum nonlethal dose) (mouse): 125 mg/kg | renal and hepatic alterations ([1]; mouse, in vivo, ip): These alterations were observed | occurrence of peritonitis in relation to the 1,2-diaminocyclohexane ligand (abdominal viscera; mouse, in vivo, ip): never observed

NC1CCCCC1N.O.O=S(=O)([O-])[O-].[Pt+2] (stereo not drawn) [PHS, cis-sulfatomonoaquo(1,2 diaminocyclohexane) platinum (II)]
ILS (leukemia L 1210; 5 mg/kg, single i.p. on D1): 112% | Survivals (leukemia L 1210; L 1210, 5 mg/kg i.p. on D1, day 30): 40% | ILS (sarcoma S 180; 0.5 mg/kg): 4% | ILS (sarcoma S 180; 1 mg/kg): 10% | ILS (sarcoma S 180; 2 mg/kg): 25% | ILS (sarcoma S 180; 4 mg/kg): 47% | ILS (sarcoma S 180; 5 mg/kg): 112% | Survivals (sarcoma S 180; S 180, 0.5 mg/kg i.p. on D1, day 60): 0% | Survivals (sarcoma S 180; [5]): 0% | Survivals (sarcoma S 180; [6]): 0% | Survivals (sarcoma S 180; [7]): 0% | Survivals (sarcoma S 180; [8]): 10% | IC50 (L 1210 cells): 190 nM | renal and hepatic alterations ([1]; i.p. at ~LD0 (mg/kg): PDD 8, PAC 100, PHM 50, PHD 4, PHS 5, PHC 120, PHIC 150, D1, D4, D10): vascular dilation and proximal distorted tubules | occurrence of peritonitis in relation to the 1,2-diaminocyclohexane ligand (abdominal viscera; i.p.): seems to be correlated with the presence of 1,2-diaminocyclohexane | change to chlorinated derivative in sodium chloride solution [2]: almost instantaneously to the formation of a yellow insoluble chlorinated compound

NC1CCCCC1N.[Cl][Pt][Cl] (stereo not drawn) [PHD, CIS-DICHLORO(1,2-DIAMINOCYCLOHEXANE) PLATINUM (II)]
ILS (leukemia L 1210; 1 mg/kg, single i.p. on D1): 5% | ILS (leukemia L 1210; 2 mg/kg, single i.p. on D1): 49% | ILS (leukemia L 1210; 4 mg/kg, single i.p. on D1): 65% | Survivals (leukemia L 1210; L 1210, 1 mg/kg i.p. on D1, day 30): 0% | Survivals (leukemia L 1210; L 1210, 2 mg/kg i.p. on D1, day 30): 0% | Survivals (leukemia L 1210; [9]): 0% | ILS (sarcoma S 180; 1 mg/kg): 100% | ILS (sarcoma S 180; 2 mg/kg): 128% | ILS (sarcoma S 180; 4 mg/kg): 127% | Survivals (sarcoma S 180; [5]): 0% | Survivals (sarcoma S 180; [6]): 20% | Survivals (sarcoma S 180; [7]): 10% | IC50 (L 1210 cells): 130 nM | LD0 (maximum nonlethal dose) (mouse): 7 mg/kg | renal and hepatic alterations ([1]; mouse, in vivo, ip): vascular alterations without any hyaline casts | occurrence of peritonitis in relation to the 1,2-diaminocyclohexane ligand (abdominal viscera; mouse, in vivo, ip): seems to be correlated with the presence of 1,2-diaminocyclohexane

cis-(t-aconitato) (1,2-diaminocyclohexane) platinum (II) [PHTA, reference compound]
ILS (leukemia L 1210; 500 mg/kg, single injection on D1): 13% | LD0 (maximum nonlethal dose) (mouse): > 500 mg/kg

NC1CCCCC1N.O=C([O-])CC(=O)[O-].[Pt+2] (stereo not drawn) [PHM, cis-malonato (1,2 diaminocyclohexane) platinum (II)]
ILS (leukemia L 1210; 50 mg/kg, single i.p. on D1): 103% | Survivals (leukemia L 1210; L 1210, 50 mg/kg i.p. on D1, day 30): 10% | ILS (sarcoma S 180; 5 mg/kg): 25% | ILS (sarcoma S 180; 10 mg/kg): 36% | ILS (sarcoma S 180; 20 mg/kg): 44% | ILS (sarcoma S 180; 40 mg/kg): 60% | ILS (sarcoma S 180; 50 mg/kg): 96% | Survivals (sarcoma S 180; [8]): 0% | Survivals (sarcoma S 180; [3]): 0% | Survivals (sarcoma S 180; S 180, 20 mg/kg i.p. on D1, day 60): 0% | Survivals (sarcoma S 180; S 180, 40 mg/kg i.p. on D1, day 60): 0% | Survivals (sarcoma S 180; [4]): 0% | IC50 (L 1210 cells): 390 nM | renal and hepatic alterations ([1]; mouse, in vivo, ip): These alterations were observed | occurrence of peritonitis in relation to the 1,2-diaminocyclohexane ligand (abdominal viscera; mouse, in vivo, ip): seems to be correlated with the presence of 1,2-diaminocyclohexane | peritonitis (abdominal viscera; mouse, in vivo, ip): most of the mice reaching 30 days of survival treatment with PHM and PHIC developed peritonitis

N.N.[Cl][Pt][Cl] [PDD, cis-dichlorodiammine platinum (II)]
ILS (leukemia L 1210; 2 mg/kg, single i.p. on D1): 28% | ILS (leukemia L 1210; 4 mg/kg, single i.p. on D1): 52% | ILS (leukemia L 1210; 6 mg/kg, single i.p. on D1): 75% | ILS (leukemia L 1210; 8 mg/kg, single i.p. on D1): 106% | Survivals (leukemia L 1210; [9]): 0% | Survivals (leukemia L 1210; L 1210, 6 mg/kg i.p. on D1, day 30): 0% | Survivals (leukemia L 1210; L 1210, 8 mg/kg i.p. on D1, day 30): 0% | Surviving animals having received L 1210 leukaemia and S 180 sarcoma (leukemia L 1210; summary for L 1210 and S 180): No | ILS (sarcoma S 180; 4 mg/kg): 41% | ILS (sarcoma S 180; 8 mg/kg): 65% | Survivals (sarcoma S 180; [7]): 0% | Survivals (sarcoma S 180; S 180, 8 mg/kg i.p. on D1, day 60): 0% | IC50 (L 1210 cells): 2330 nM | Number of fixed platinum atoms per nucleotide on DNA (DNA): 1/30000 | amount that penetrated the cells which was complexed to DNA (DNA): 1% | nucleotides per one fixed platinum atom (DNA): 3000 nucleotides | occurrence of peritonitis in relation to the 1,2-diaminocyclohexane ligand (abdominal viscera; mouse, in vivo, ip): never observed
